pIC50: −log10 of the molar value. Several values for one entry are separate records, joined by “and”; a condition that tells them apart may be missing. Equal values may be shown once. Entries after “also recorded” stand apart in the source; their conditions may differ.
How the values were obtained:
[1] = test system: nAChRs on SuSC GABAergic terminals (crude synaptosomes); format: biochemical, mouse
nAChRs in SuSC membranes = format: binding, mouse (C57BL/6)
[2] = test system: nAChRs in SC core membranes; format: binding, mouse (C57BL/6)
[3] = test system: α6β2*-nAChR, crude striatal synaptosomes; format: biochemical, mouse
[4] = biological target: α-CtxMII-sensitive nAChR, SuSC crude synaptosomes (Mus musculus, UniProt Q8R4G9+Q9ERK7); format: biochemical
α-CtxMII-sensitive nAChR, SuSC crude synaptosomes, sequence (Q8R4G9 whole entry, looked up): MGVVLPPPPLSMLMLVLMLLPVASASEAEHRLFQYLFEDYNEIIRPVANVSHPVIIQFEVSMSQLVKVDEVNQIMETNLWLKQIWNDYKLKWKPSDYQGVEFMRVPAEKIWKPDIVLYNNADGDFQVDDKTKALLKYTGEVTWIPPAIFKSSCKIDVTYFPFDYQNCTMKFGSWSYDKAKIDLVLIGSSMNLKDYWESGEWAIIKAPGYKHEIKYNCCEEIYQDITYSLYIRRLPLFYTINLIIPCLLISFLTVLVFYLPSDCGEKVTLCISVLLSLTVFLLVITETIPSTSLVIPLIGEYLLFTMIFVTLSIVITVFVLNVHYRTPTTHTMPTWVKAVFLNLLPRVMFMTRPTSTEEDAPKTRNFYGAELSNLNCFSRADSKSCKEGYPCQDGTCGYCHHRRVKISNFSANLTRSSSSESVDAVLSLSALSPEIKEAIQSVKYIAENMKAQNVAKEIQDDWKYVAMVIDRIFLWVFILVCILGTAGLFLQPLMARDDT
α-CtxMII-sensitive nAChR, SuSC crude synaptosomes, sequence (Q9ERK7 whole entry, looked up): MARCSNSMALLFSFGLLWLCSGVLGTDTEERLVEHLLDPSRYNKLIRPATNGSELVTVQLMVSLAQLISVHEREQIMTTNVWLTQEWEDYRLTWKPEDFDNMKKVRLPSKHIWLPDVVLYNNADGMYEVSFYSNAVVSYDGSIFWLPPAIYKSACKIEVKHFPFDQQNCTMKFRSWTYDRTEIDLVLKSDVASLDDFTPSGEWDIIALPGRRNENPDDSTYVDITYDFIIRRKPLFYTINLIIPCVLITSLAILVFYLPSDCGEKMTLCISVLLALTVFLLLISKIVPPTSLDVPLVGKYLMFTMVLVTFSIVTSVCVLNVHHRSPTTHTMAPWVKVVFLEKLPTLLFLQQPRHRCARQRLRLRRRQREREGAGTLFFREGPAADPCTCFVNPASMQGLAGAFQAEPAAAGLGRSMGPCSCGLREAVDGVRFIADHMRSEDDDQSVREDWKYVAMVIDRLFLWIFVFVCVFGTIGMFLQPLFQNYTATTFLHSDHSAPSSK

SuSC crude synaptosomes = format: biochemical, mouse; conditions: n = 5
[5] = test system: nAChRs, SuSC crude synaptosomes of nAChR subunit null mutant mice; format: biochemical, mouse
[6] = test system: α-CtxMII-sensitive nAChR, striatum; conditions: cited from earlier work
rat α3β2 receptors = conditions: cited from earlier work
α6β2* and α3β2* nAChR = conditions: cited from earlier work
nAChR, SuSC = conditions: rat, in vivo; cited from earlier work
α4β2* nAChR = conditions: cited from earlier work

## C[C@]12N[C@H](Cc3ccccc31)c1ccccc12 [MK-801, (5S,10R)-(+)-5-Methyl-10,11-dihydro-5H-dibenzo[a,d]cyclohepten-5,10-imine]
[1]; 200 μM, 5 min, n=4
  effect of MK-801 on ACh-stimulated [^3H]-GABA release: no effect

## α-conotoxin MII [α-CtxMII]
nAChRs in SuSC membranes; 0.0002 µM
  specific [^125I]epibatidine binding sensitive to inhibition by α-CtxMII: 40 +/- 5% and 40.2 ± 5.2%
nAChRs in SuSC membranes; read-out: IC50 for the α-CtxMII-resistant sites
  pIC50: < 6.00
[2]
  inhibition of [^125I]-epibatidine binding: not inhibited by α-CtxMII at concentrations below 1 μM
[1]
  concentration at which maximal inhibition of [^3H]-GABA release was achieved: 30 nM
  effect of 100nM α-CtxMII on response to ACh: reduced the response seen by stimulation with ACh, but did not eliminate it
  nAChR-mediated SuSC [^3H]-GABA release inhibited by α-conotoxinMII (abstract): Approximately 50%
  α-CtxMII sensitive fraction of total [^3H]-GABA release: 58 ± 7%
[1]; read-out: IC50, inhibition of ACh-stimulated [^3H]-GABA release
  pIC50: 8.98
[3]
  inhibition of ACh-stimulated [^3H]-dopamine release: 41.2 ± 2.8%
[4]
  lag period during which no recovery was observed: approximately 5 min
[4]; n = 3-4
  functional recovery of ACh-evoked [^3H]-GABA release, of control: 91 ± 18%
  t1/2 for recovery from α-CtxMII inhibition: 5.2 min and ~5 min
SuSC crude synaptosomes
  K^+-evoked [^3H]-GABA release in the presence of α-CtxMII: 14.1 ± 2.7
[5]
  α-CtxMII sensitive [^3H]-GABA release after β3 subunit gene deletion: unaffected
  α-CtxMII-sensitive [^3H]-GABA release after deletion of the α6 subunit: no appreciable impact
[5]; n = 4
  [^3H]-GABA release in α6-null mutant mice: indistinguishable from the same measures in wild-type mice
[6]
  t1/2 of recovery from α-CtxMII inhibition, [^3H]-DA release: ~26 min
Rat α3β2 receptors
  t1/2 of recovery from α-CtxMII inhibition, rat α3β2 receptors: approximately 4 minutes
  time by which full recovery was observed, rat α3β2 receptors: ≤ 26 min
α6β2* and α3β2* nAChR
  affinity for α6β2* and α3β2* nAChR subtypes: high affinity
  subtypes inhibited by the α-conotoxin: inhibits both α3β2*- and α6β2*-nAChR

## CC(=O)OCC[N+](C)(C)C [ACh, Acetylcholine]
[1]
  loss of ACh-evoked [^3H]-GABA release in the absence of external calcium: 94 ± 3%
  maximal ACh-stimulated [^3H]-GABA release, α-CtxMII-resistant component: 1.00 ± 0.20 × baseline
  maximal ACh-stimulated [^3H]-GABA release, α-CtxMII-sensitive component: 0.71 ± 0.08 × baseline
  maximal [^3H]-GABA release, high sensitivity component: 0.68 ± 0.19
  maximal [^3H]-GABA release, low sensitivity component: 1.47 ± 0.21
  share of ACh-elicited [^3H]-GABA release due to α4β2*-type receptor: ~65%
[5]
  ACh-stimulated [^3H]-GABA release in β2^-/- mice: entirely β2 subunit-dependent; also recorded: completely absent
  ACh-stimulated [^3H]-GABA release remaining in α4^-/- mice, of WT activity: 9.7 ± 1.1 % of WT activity remaining
  decrease of total function by α4 subunit deletion: > 90%

## [Cd] [cadmium]
[1]
  block of ACh-stimulated [^3H]-GABA release by cadmium: 94 ± 1%
  effect on ACh-evoked [^3H]-GABA release (abstract): blocked

## CN1[C@@H](CC(=O)c2ccccc2)CCC[C@H]1C[C@H](O)c1ccccc1 [lobeline]
nAChR, SuSC
  visual responses originating in the SuSC: reduced

## Nc1ncnc2c1ncn2[C@@H]1O[C@H](COP(=O)(O)OP(=O)(O)OP(=O)(O)O)[C@H]2OC3(O[C@H]21)C([N+](=O)[O-])=CC(=[N+]([O-])[O-])C=C3[N+](=O)[O-] (stereo partly shown) [TNP-ATP]
[1]; 10 μM, 4 min, n=3
  effect of TNP-ATP on ACh-stimulated [^3H]-GABA release: no effect

## [125I]c1ccc(C2CC3CCC2N3)cn1 (stereo not shown) [[^125I]-epibatidine]
nAChRs in SuSC membranes
  Bmax, specific [^125I]epibatidine binding: 100 ± 2 fmol/mg
[2]
  Bmax, [^125I]-epibatidine binding: 56 ± 2 fmol/mg

## CNC1(C)C2CCC(C2)C1(C)C (stereo not shown) [Mecamylamine, mecamylamine]
[1]
  effect on ACh-evoked [^3H]-GABA release (abstract): blocked
[1]; 10 μM, 1 min, n=3
  effect of mecamylamine on ACh-stimulated [^3H]-GABA release: completely eliminated ACh-stimulated release of [^3H]-GABA

## CN1[C@@H]2CC[C@H]1C[C@@H](OC(=O)c1cc(Cl)cc(Cl)c1)C2 [MDL-72222, Tropanyl 3,5-dichlorobenzoate]
[1]; 1 μM, 5 min, n=5
  effect of MDL-72222 on ACh-stimulated [^3H]-GABA release: no effect

## CN1[C@@H]2CC[C@H]1C[C@@H](OC(=O)C(CO)c1ccccc1)C2 (stereo partly shown) [atropine]
[1]
  effect of atropine on ACh-stimulated [^3H]-GABA release: no effect

## CN1CCC[C@H]1c1cccnc1 [nicotine]
α4β2* nAChR
  binding to α4β2* nAChR: binds nicotine and other agonists with high affinity

## N#Cc1cc2c(cc1[N+](=O)[O-])=NC(=O)C(=O)N=2 [CNQX, 6-Cyano-7-nitroquinoxaline-2,3-dione]
[1]; 100 μM, 5 min, n=4
  effect of CNQX on ACh-stimulated [^3H]-GABA release: no effect

Reference: article PMC4026281 (Journal of neurochemistry, 2012)
